Article PMC10296061, “Inhibition of the Mitochondrial Carnitine/Acylcarnitine Carrier by Itaconate through Irreversible Binding to Cysteine 136: Possible Pathophysiological Implications” (Biomolecules, 2023)
Where two headings read alike, the source gives them in different places.

Assays:
recombinant CAC (WT) = biological target: T1, recombinant CAC (WT) (Rattus norvegicus, UniProt P97521); assay: [3H]carnitine/carnitine antiport in proteoliposomes reconstituted with recombinant WT CAC; format: biochemical
T1 construct: made in house; host or cells: E. coli C0214
T1 sequence (P97521 1-301): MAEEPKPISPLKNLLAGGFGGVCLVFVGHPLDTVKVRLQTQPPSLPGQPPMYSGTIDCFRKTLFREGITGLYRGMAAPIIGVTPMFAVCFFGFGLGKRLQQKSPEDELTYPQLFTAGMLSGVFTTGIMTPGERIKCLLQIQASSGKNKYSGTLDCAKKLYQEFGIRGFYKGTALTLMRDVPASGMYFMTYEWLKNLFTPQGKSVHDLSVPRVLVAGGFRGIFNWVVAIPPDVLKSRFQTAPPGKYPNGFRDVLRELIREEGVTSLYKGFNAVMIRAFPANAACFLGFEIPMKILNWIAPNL
Procedure: As previously described, the pMW7-WTratCAC recombinant plasmid was used for over-expressing the rat CAC [22]. The overlap extension method was used to introduce the mutations; in the main time, NdeI and HindIII restriction sites were also added using appropriate primers. The PCR products were purified by the QIAEX II Gel Extraction Kit (QIAGEN) and digested with NdeI and HindIII and then ligated into the pMW7. All mutations were verified by DNA sequencing. The resulting plasmid constructs were transformed into E. coli C0214. Overexpression, inclusion body fraction preparation, and purification of the CAC proteins were performed as previously described.
As previously described, recombinant CAC (WT and mutants) and ORC1 proteins were used for proteoliposome formation. For experiments with native CAC, ORC1, or ANT proteins, rat liver mitochondria, or HeLa cell mitochondria, the latter for the CAC alone, were first purified using the standard procedure of cell disruption and differential centrifugation. Then proteins were extracted using 3% Triton X-100 and reconstituted as described for the recombinant proteins. The concentration of intraliposomal carnitine and ornithine was 15 mM and 30 mM, respectively, in all samples.
To test the transport activity of the CAC, 550 μL of proteoliposomes was passed through a Sephadex G-75 column to remove the external substrate. Six hundred μL of the turbid eluate was collected, divided into samples of 100 μL each, and used for transport measurement by the inhibitor-stop method. Transport was started by adding 0.1 mM [^3H]carnitine ([^3H]ornitine or [^3H]ATP) to proteoliposome samples and stopped with 1.5 mM NEM (N-ethylmaleimide) at the indicated time interval. In the control samples, NEM was added with the labeled substrate at time zero. Transport rates were measured in 10 min, i.e., within the initial linear range of the time course, at 25 °C. After terminating the transport reaction, the external substrate was removed by chromatography on the Sephadex G-75 column, and the intraliposomal radioactivity was measured. The experimental values were corrected by subtracting the controls.
Figure 1 Effect of itaconate on the native and recombinant mitochondrial carnitine/acylcarnitine (CAC). Dose–response analysis for itaconate inhibition was carried out using proteoliposomes reconstituted with native (○) or recombinant (●) CAC carriers. After 10 min of itaconate incubation, transport activity was started by adding 0.1 mM [^3H]carnitine and stopped after 10 min as described in Section 2. Percent of residual activity with respect to the control, without itaconate treatment, was reported. The values are the means ± SD from three independent experiments.
Figure 2 Effect of different pH on the inhibition of CAC protein by itaconate. (a) Proteoliposomes reconstituted with the recombinant CAC were incubated at various pHs (range pH 6.5–8.5) for 10 min with 10 mM itaconate. (b) Dose–response analysis of inhibition by itaconate of the recombinant CAC at pH 6.5. was performed. Proteoliposomes were incubated for 10 min at pH 6.5 with itaconate at the indicated concentrations. In both (a,b), the transport activity was measured for 10 min by adding to proteoliposomes 0.1 mM [^3H]carnitine.

recombinant ORC (hORC1) = biological target: T2, recombinant ORC (hORC1) (Homo sapiens, UniProt Q9Y619); assay: [3H]ornithine transport in proteoliposomes reconstituted with recombinant ORC; format: biochemical; conditions: read-out: IC50 for itaconate inhibition
T2 construct: encodes a full-length hORC1 protein with a His6 tag before the termination codon; His6 (C); made in house; host or cells: E. coli C0214
T2 sequence (Q9Y619 1-301): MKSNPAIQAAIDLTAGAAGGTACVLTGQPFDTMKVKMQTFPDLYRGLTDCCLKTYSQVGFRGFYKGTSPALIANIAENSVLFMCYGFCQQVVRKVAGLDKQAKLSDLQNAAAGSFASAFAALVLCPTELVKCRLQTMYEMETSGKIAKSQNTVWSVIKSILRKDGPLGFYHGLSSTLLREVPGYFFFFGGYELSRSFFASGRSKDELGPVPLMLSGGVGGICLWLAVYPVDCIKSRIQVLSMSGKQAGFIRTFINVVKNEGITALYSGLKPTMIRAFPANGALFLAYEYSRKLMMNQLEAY
Source text: The 903 bp cDNA coding for the hORC1Wild Type (WT) protein was amplified from the Mega Man Human Transcriptome Library with the forward and reverse primers 5′-[…]-3′ and 5′-[…]-3′, containing the NdeI and HindIII sites, respectively. The amplified cDNA was then cloned in the NdeI/HindIII sites of the pET-21a(+) expression vector. The resulting recombinant plasmid, defined as pET-21a(+)-hORC1, encodes a full-length hORC1 protein with a His6 tag before the termination codon. […]
To test the transport activity of the CAC, 550 μL of proteoliposomes was passed through a Sephadex G-75 column to remove the external substrate. […] Transport rates were measured in 10 min, i.e., within the initial linear range of the time course, at 25 °C. After terminating the transport reaction, the external substrate was removed by chromatography on the Sephadex G-75 column, and the intraliposomal radioactivity was measured. […]
Figure 3 Identification of residue responsible for itaconate inhibition. […] Transport activity of the WT (○), C136A (●), C155A (Δ), C23V/C58V/C89S/C155V/C283S (▲), and C23V/C58V/C89S/C136V/C155V/C283S (□) was measured by adding 0.1 mM [^3H]carnitine after treatment by itaconate at the indicated concentrations. […] Transport activity was measured by adding 0.1 [^3H]ornithine, respectively, as described in Materials and Methods. […]

`C=C(CC(=O)O)C(=O)O` [itaconate] was tested. Which “reversal of inhibition by the reducing agent DTE” value (recombinant CAC (WT); 10 mM itaconate pre-incubation 10 min, 25 mM DTE, transport 30 min) did it give?
The value was “not able to reverse the inhibition”.

What about the inhibition at 10000 µM (recombinant CAC (WT); 10 mM itaconate, 10 min, pH 6.5, read-out: inhibition of transport) of the same compound?
Its inhibition at 10000 µM is about 80%.

And the inhibition of transport (recombinant CAC (WT); 10 mM itaconate, 10 min, pH 8.0 and pH 8.5)?
Its inhibition of transport is “Virtually no inhibition”.

And the inhibition at 10000 µM (recombinant CAC (WT); 10 mM itaconate, pH 7.0, 10 min, without carnitine, unreacted compound removed by G-75, read-out: inhibition compared to the control)?
Its inhibition at 10000 µM is about 55%.

What about the type of inhibition (recombinant CAC (WT); WT, double reciprocal plot) of the same compound?
The type of inhibition was “non-competitive inhibition”.

What about the Ki (recombinant CAC (WT); pH 7.0, 10 mM itaconate, Lineweaver-Burk plot) of the same compound?
The Ki was 14 ± 2.6 mM.

What about the IC50 (recombinant CAC (WT); recombinant CAC, 10 min incubation, 0.1 mM [3H]carnitine, pH 7.0, read-out: IC50 for itaconate inhibition of transport) of the same compound?
The IC50 was 8.4 ± 2.9 mM.

And the IC50 (recombinant CAC (WT); recombinant WT CAC, pH 6.5, 10 min incubation, read-out: IC50 for inhibition of transport at pH 6.5)?
The IC50 was 3.8 ± 1 mM.

What about the IC50 (recombinant ORC (hORC1)) of the same compound?
Its IC50 is 44 ± 6 mM.
